Patent US5138069A (E. I. Du Pont de Nemours and Company, priority 1988, dated 1992)
Like-named read-outs stand apart in the source and are kept apart here.

What was measured:
pressor response to AII = assay: Inhibition of the pressor response to AII in conscious dogs; format: in vivo
Protocol: (§1) The hypotensive effects of 2-butyl-4-chloro-1-[2'-(1H-tetrazol-5-yl)biphenyl-4-yl)methyl]-5-hydroxymethylimidazole sodium salt were compared before and after furosemide administration to conscious dogs. […] Plasma renin activity (PRA) in these animals was 1.5±0.5 ng AI/ml/hr. Four days later, furosemide was given to three of these dogs at 10 mg/kg im at 18 and 2 hours before the experiment and increased PRA to 19.9±7.2 ng AI/ml/hr. […] Thus a combined therapy of these two classes of drugs will be likely to increase the response rate to therapy among hypertensive patients.

conscious dogs = assay: Hypotensive effects in conscious dogs before and after furosemide; format: in vivo
Protocol: as §1

AII receptor = assay: Angiotensin II receptor binding (displacement of 3H-AII); details: read-out: Angiotensin II Receptor Binding IC50, rat adrenal cortical microsomes, 2 nM 3H-AII, 1 hour, room temperature
How it was run: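 The receptor source was rat adrenal cortical microsomes in Tris buffer, incubated with 2 nM ³H-AII plus or minus test compound for 1 h at room temperature. Bound and free ligand were separated by rapid filtration on glass-fibre filters. Filter-bound ³H-AII was counted by scintillation.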

Renal Hypertensive Rats = assay: Antihypertensive effects in renal hypertensive rats; format: in vivo; details: Rattus norvegicus; for minimal effective dose at 3 mg/kg / minimal effective dose at 30 mg/kg: Table 26; for minimal effective dose at 30 mg/kg: oral
How it was run: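 Renal hypertensive rats (renin-driven AII elevation) dosed orally at 100 mg/kg and/or i.v. via jugular cannula at 10 mg/kg; a second set used 30 mg/kg oral and 3 mg/kg i.v. Arterial pressure recorded continuously via carotid cannula and compared with pretreatment levels.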

[1] = system: renal vasoconstrictor effect of NSAID; details: cited from earlier work
AII = details: cited from earlier work
[2] = system: Plasma renin activity (PRA); assay: Plasma renin activity in conscious dogs; format: in vivo; details: three dogs, furosemide 10 mg/kg im at 18 and 2 hours before; PRA before 1.5±0.5
Protocol: as §1

CCCCc1nc(Cl)c(CO)n1Cc1ccc(-c2ccccc2-c2nnn[nH]2)cc1
inhibition of pressor response to AII, before furosemide (pressor response to AII; cumulative iv 0.3 to 3 mg/kg, AII 0.1 μg/kg iv, 10 min post dose): effective in inhibiting the pressor response to AII
inhibition of pressor response to AII, after furosemide (pressor response to AII; iv, after furosemide 10 mg/kg im): inhibited the pressor response to AII at the two higher doses
blood pressure, after furosemide (conscious dogs; conscious dogs, cumulative iv 0.3 to 3 mg/kg after furosemide 10 mg/kg im at 18 and 2 hours before): caused a significant decrease in blood pressure in a dose-dependent manner
blood pressure, before furosemide (conscious dogs; normotensive conscious dogs, cumulative iv 0.3 to 3 mg/kg, n=4): did not lower blood pressure

CCCCc1nc(Cl)c(C=NNS(=O)(=O)c2ccccc2)n1Cc1ccc(-c2ccccc2-c2nnn[nH]2)cc1 [Example 327, 2-n-Butyl-4-chloro-1-[(2'-(1H-tetrazol-5-yl)biphenyl-4-yl)methyl]-imidazole-5-carboxaldehyde, benzenesulfonylhydrazone]
IC50 (AII receptor; Table 26): 660 nM
minimal effective dose at 3 mg/kg (Renal Hypertensive Rats; intravenous): > 3 mg/kg
minimal effective dose at 30 mg/kg (Renal Hypertensive Rats): > 30 mg/kg

CCCCc1nc(Cl)c(C=NNC2=NCCN2)n1Cc1ccc(-c2ccccc2-c2nnn[nH]2)cc1 [Example 327A]
IC50 (AII receptor; Table 26): 290 nM
minimal effective dose at 3 mg/kg (Renal Hypertensive Rats; intravenous): < 3 mg/kg
minimal effective dose at 30 mg/kg (Renal Hypertensive Rats): < 30 mg/kg

CCCCc1nc(Cl)c(C=NNC2=NCCN2)n1Cc1cccc(-c2ccccc2-c2nnn[nH]2)c1 [Example 327D]
IC50 (AII receptor; Table 26): 5200 nM
minimal effective dose at 3 mg/kg (Renal Hypertensive Rats; intravenous): > 3 mg/kg
minimal effective dose at 30 mg/kg (Renal Hypertensive Rats): > 30 mg/kg

CCCc1nc(C(=O)O)c(C(=O)O)n1Cc1ccc(-c2ccccc2C(=O)O)cc1 [Example 328]
IC50 (AII receptor; Table 26): 6700 nM
minimal effective dose at 3 mg/kg (Renal Hypertensive Rats; intravenous): < 3 mg/kg
minimal effective dose at 30 mg/kg (Renal Hypertensive Rats): < 30 mg/kg

CCCc1nc(C(=O)O)c(C(=O)O)n1Cc1ccc(-c2ccccc2-c2nnn[nH]2)cc1 [Example 329]
IC50 (AII receptor; Table 26): 76 nM
minimal effective dose at 3 mg/kg (Renal Hypertensive Rats; intravenous): < 3 mg/kg
minimal effective dose at 30 mg/kg (Renal Hypertensive Rats): < 30 mg/kg

CCCc1nc(C(=O)OC)c(C(=O)OC)n1Cc1ccc(-c2ccccc2-c2nnn[nH]2)cc1 [Example 333, 4,5-Dicarbomethoxy-2-n-propyl-1-[(2'-(1H-tetrazol-5-yl)biphenyl-4-yl)methyl]imidazole]
IC50 (AII receptor; Table 26): 51 nM
minimal effective dose at 3 mg/kg (Renal Hypertensive Rats; intravenous): < 3 mg/kg
minimal effective dose at 30 mg/kg (Renal Hypertensive Rats): < 30 mg/kg

CCCc1nc(C(=O)OC)c(CO)n1Cc1ccc(-c2ccccc2-c2nnn[nH]2)cc1 [Example 334, 4-Carbomethoxy-5-hydroxymethyl-2-n-propyl-1-[(2'-(1H-tetrazol-5-yl)biphenyl)-methyl]imidazole]
IC50 (AII receptor; Table 26): 15 nM
minimal effective dose at 3 mg/kg (Renal Hypertensive Rats; intravenous): < 3 mg/kg
minimal effective dose at 30 mg/kg (Renal Hypertensive Rats): < 30 mg/kg

CCCc1nc(C(=O)O)c(CO)n1Cc1ccc(-c2ccccc2-c2nnn[nH]2)cc1 [Example 335, 5-Hydroxymethyl-2-n-propyl-1-[(2'-(1H-tetrazol-5-yl)biphenyl)methyl]-imidazole-4-carboxylic acid]
IC50 (AII receptor; Table 26): 260 nM
minimal effective dose at 3 mg/kg (Renal Hypertensive Rats; intravenous): < 3 mg/kg
minimal effective dose at 30 mg/kg (Renal Hypertensive Rats): < 30 mg/kg

CCCCc1nc(Cl)c(CO)n1Cc1ccc(-c2ccccc2-c2[nH]nnc2C#N)cc1 [Example 336]
IC50 (AII receptor; Table 26): 280 nM
minimal effective dose at 3 mg/kg (Renal Hypertensive Rats; intravenous): > 3 mg/kg
minimal effective dose at 30 mg/kg (Renal Hypertensive Rats): > 30 mg/kg

CCCCc1nc(CO)c(Cl)n1Cc1ccc(-c2ccccc2-c2nn[nH]c2C#N)cc1 [Example 337, 2-n-Butyl-5-chloro-1-[(2'-(5-cyano-1,2,3-triazol-4-yl)biphenyl-4-yl)methyl]-4-hydroxymethylimidazole]
IC50 (AII receptor; Table 26): 760 nM
minimal effective dose at 3 mg/kg (Renal Hypertensive Rats; intravenous): < 3 mg/kg
minimal effective dose at 30 mg/kg (Renal Hypertensive Rats): > 30 mg/kg

CCCCc1nc(Cl)c(CO)n1Cc1ccc(-c2ccccc2-c2nn[nH]c2C(=O)OC)cc1 [Example 338, 2-n-Butyl-4-chloro-1-[(2'-(5-carbomethoxy-1,2,3-triazol-4-yl)biphenyl-4-yl)methyl]-5-hydroxymethylimidazole]
IC50 (AII receptor; Table 26): 260 nM
minimal effective dose at 3 mg/kg (Renal Hypertensive Rats; intravenous): > 3 mg/kg
minimal effective dose at 30 mg/kg (Renal Hypertensive Rats): > 30 mg/kg

CCCCc1nc(CO)c(Cl)n1Cc1ccc(-c2ccccc2-c2[nH]nnc2C(=O)OC)cc1 [Example 339, 2-n-Butyl-5-chloro-1-[(2'-(5-carbomethoxy-1,2,3-triazol-4-yl)biphenyl-4-yl)-methyl]-5-hydroxymethylimidazole]
IC50 (AII receptor; Table 26): 1700 nM
minimal effective dose at 3 mg/kg (Renal Hypertensive Rats; intravenous): < 3 mg/kg
minimal effective dose at 30 mg/kg (Renal Hypertensive Rats): < 30 mg/kg

CCCCc1nc(Cl)c(CO)n1Cc1ccc(-c2ccccc2-c2n[nH]c(C(F)(F)F)n2)cc1 [Example 340, 2-n-Butyl-4-chloro-5-hydroxymethyl-1-[(2'-(5-trifluoromethyl-1,2,4-triazol-3-yl)biphenyl-4-yl)methyl]imidazole]
IC50 (AII receptor; Table 26): 370 nM
minimal effective dose at 3 mg/kg (Renal Hypertensive Rats; intravenous): < 3 mg/kg
minimal effective dose at 30 mg/kg (Renal Hypertensive Rats): < 30 mg/kg

CCCCc1nc(Cl)c(CO)n1Cc1ccc(-c2c(C#N)cccc2-c2nnn[nH]2)cc1 [Example 343, 2-n-Butyl-4-chloro-1-[(2'-cyano-6'-(1H-tetrazol-5-yl)biphenyl-4-yl)methyl]-5-hydroxymethylimidazole]
IC50 (AII receptor; Table 26): 510 nM
minimal effective dose at 3 mg/kg (Renal Hypertensive Rats; intravenous): < 3 mg/kg
minimal effective dose at 30 mg/kg (Renal Hypertensive Rats): > 30 mg/kg

CCCCc1nc(Cl)c(-c2nnn[nH]2)n1Cc1ccc(-c2ccccc2-c2nnn[nH]2)cc1 [Example 344, 2-n-Butyl-4-chloro-5-(1H-tetrazol-5-yl)-1-[(2'-(1H-tetrazol-5-yl)biphenyl-4-yl)methyl]-imidazole]
IC50 (AII receptor; Table 26): 160 nM
minimal effective dose at 3 mg/kg (Renal Hypertensive Rats; intravenous): < 3 mg/kg
minimal effective dose at 30 mg/kg (Renal Hypertensive Rats): < 30 mg/kg

CCCCc1nc(Cl)c(-c2[nH]nnc2C(=O)O)n1Cc1ccc(-c2ccccc2-c2nnn[nH]2)cc1 [Example 345, 2-n-Butyl-5-(4-carboxy-1,2,3-triazol-5-yl)-4-chloro-1-[(2'-(1H-tetrazol-5-yl)biphenyl-4-yl)methyl]imidazole]
IC50 (AII receptor; Table 26): 1100 nM
minimal effective dose at 3 mg/kg (Renal Hypertensive Rats; intravenous): < 3 mg/kg

CCCCc1nc(Cl)c(CN2CCN(c3ccccc3OC)CC2)n1Cc1ccc(-c2ccccc2C(=O)O)cc1 [Example 346, 2-n-Butyl-1-[(2'-carboxybiphenyl-4-yl)methyl]-4-chloro-5-[(1-(2-methoxyphenyl)piperazin-4-yl)methyl]imidazole]
IC50 (AII receptor; Table 25): 740 nM
minimal effective dose at 10 mg/kg (Renal Hypertensive Rats; Table 25, intravenous, 10 mg/kg or less): < 10 mg/kg

CCCCc1nc(Cl)c(C(=O)N2CCN(c3ccccc3OC)CC2)n1Cc1ccc(-c2ccccc2-c2nnn[nH]2)cc1 [Example 347, 2-n-Butyl-4-chloro-5-[4-(2-methoxyphenyl)piperazin-1-ylcarbonyl]-1-[(2'-(1H-tetrazol-5-yl)biphenyl-4-yl)methyl]imidazole]
IC50 (AII receptor; Table 26): 200 nM
minimal effective dose at 3 mg/kg (Renal Hypertensive Rats; intravenous): < 3 mg/kg
minimal effective dose at 30 mg/kg (Renal Hypertensive Rats): < 30 mg/kg

CCCCc1nc(C(=O)N2CCN(c3ccccc3OC)CC2)c(Cl)n1Cc1ccc(-c2ccccc2-c2nnn[nH]2)cc1 [Example 348]
IC50 (AII receptor; Table 26): 1300 nM
minimal effective dose at 3 mg/kg (Renal Hypertensive Rats; intravenous): < 3 mg/kg
minimal effective dose at 30 mg/kg (Renal Hypertensive Rats): > 30 mg/kg

CNCC(=O)N[C@@H](CCCN=C(N)N)C(=O)N[C@H](C(=O)N[C@@H](Cc1ccc(O)cc1)C(=O)N[C@H](C(=O)N[C@@H](Cc1cnc[nH]1)C(=O)N1CCC[C@H]1C(=O)N[C@@H](C)C(=O)O)C(C)C)C(C)C [Saralasin, [Sar^1, Ala^8] AII]
effect on renal vasoconstrictor effect of indomethacin and meclofenamate ([1]; dogs): inhibit the renal vasoconstrictor effect of indomethacin and meclofenamate in dogs
antagonism of the actions of AII (AII; Pals et al. 1971, pithed rats): one of the most potent competitive antagonists of the actions of AII
arterial pressure (AII; mammals and man, elevated pressure dependent on circulating AII): lower arterial pressure in mammals and man
oral efficacy (AII; oral doses): oral doses being ineffective
pressor effects (AII; when the pressure is not sustained by AII): generally elicits pressor effects when the pressure is not sustained by AII

C[C@H](CS)C(=O)N1CCC[C@H]1C(=O)O [captopril, Captopril]
effect on renal vasoconstrictor effect of indomethacin ([1]; dogs with non-hypotensive hemorrhage): reverse the renal vasoconstrictor effect of indomethacin in dogs

NS(=O)(=O)c1cc(C(=O)O)c(NCc2ccco2)cc1Cl [furosemide]
Plasma renin activity (PRA) after furosemide [2]: 19.9±7.2 ng AI/ml/hr
